Patent publication US12295937B2, “Psychoactive medicines and their use for treating psychiatric and neurological conditions and disorders” (Transcend Therapeutics, Inc., priority 2021, dated 2025)

Columns and labels:
[1] = Excipient compatibility study (assay, appearance, degradation products); format: physicochemical
Description: Analyses were conducted at t=0, 2, 4 and 8 weeks for appearance, assay, and related substances for samples stored in closed vials at 25° C./60% RH and 40° C./75% RH.
Excipient Compatibility Sample Mixtures: The excipients and API were dispensed individually by weight into 20 mL clear borosilicate (type I) glass vials to fill the appropriate weights as listed in Table 12. Table 12 lists mixtures of API with varied excipients and a stand-alone control sample of API alone. Each excipient mixture sample preparation was conducted using a clean spatula to mix the vial ingredients for 30-60 seconds. Each vial was properly labeled with the description and storage conditions. One vial was used for testing at the initial (t=0) time point. Three vials, closed, were placed at each storage condition to allow sampling at each time point and one vial, closed, was placed at each storage condition for overage.

[2] = molecular target: DAT (Rattus norvegicus, UniProt P23977); assay: [3H]DA release from rat brain synaptosomes; format: biochemical; design: from tissue; synaptosomes for uptake and release; details: rat brain synaptosomes; read-out: Neurotransmitter release: EC50
Description: Test compounds and synaptosomes were prepared as described for uptake inhibition assays. Synaptosomes treated with [^3H]5-HT, [^3H]DA or [^3H]NE were loaded onto filter chambers containing GF/C filters and placed in a superfusion system. Oxygenated Krebs buffer was perfused through the chambers at a rate of 1.5 mL/minute at 35° C. using either an 8-channel or a 12-channel peristaltic pump. Trapped air bubbles were removed from the filters prior to collecting fractions to ensure an even flow over the synaptosomal bed. After a superfusion period of 45 minutes, 2 basal fractions were collected followed by 6 fractions following the addition of the test drug. […] Scintillation cocktail was added, and the filters counted to determine residual radioactivity. Drug-evoked release of neurotransmitter was calculated by subtracting the average of the two basal fractions (collected prior to the drug addition), from the four fractions collected in the presence of drug. The drug-evoked release was then expressed as a percentage of the basal release. Potassium-evoked release was calculated by subtracting the average of two fractions collected prior to the addition of high KCl buffer from that in the two fractions following addition of high KCl buffer. Potassium-stimulated release was calculated as a percentage of basal release. […]

[3] = molecular target: 168 GPCRs (Homo sapiens, UniProt Q16602); assay: β-arrestin GPCR screen (PathHunter / GPCRmax), agonist mode; format: cell-based; design: host or cells: PathHunter cell lines; details: CALCRL-RAMP3, 1 uM
Description: (§1) For agonist determination, cells were incubated with sample to induce response. […] Vehicle concentration was 1%.

[4] = molecular target: T1, 168 GPCRs (Homo sapiens, UniProt P49238); assay: as above; format: cell-based; details: CX3CR1, 1 uM
T1 construct: host or cells: PathHunter cell lines
Description: as §1

[5] = molecular target: T2, 168 GPCRs (Homo sapiens, UniProt P32239); assay: as above; format: cell-based; details: CCKBR, 1 uM
T2 construct: host or cells: PathHunter cell lines
Description: as §1

[6] = molecular target: T3, 168 GPCRs (Homo sapiens, UniProt P34998); assay: as above; format: cell-based; details: CRHR1, 1 uM
T3 construct: host or cells: PathHunter cell lines
Description: as §1

[7] = molecular target: T4, 168 GPCRs (Homo sapiens, UniProt P32249); assay: as above; format: cell-based; details: EBI2, 1 uM
T4 construct: host or cells: PathHunter cell lines
Description: as §1

[8] = molecular target: T5, 168 GPCRs (Homo sapiens, UniProt Q99788); assay: as above; format: cell-based; details: CMKLR1, 1 uM
T5 construct: host or cells: PathHunter cell lines
Description: as §1

[9] = molecular target: T6, 168 GPCRs (Homo sapiens, UniProt P35408); assay: as above; format: cell-based; details: PTGER4, 1 uM
T6 construct: host or cells: PathHunter cell lines
Description: as §1

[10] = Reserpine-induced fibromyalgia model, vonFrey test; format: in vivo, rat; details: 15 mg/kg IP, 30 min before vonFrey test, day 4
Description: In this Example, male Sprague Dawley rats are tested in a behavioral model of FMA based on the protocol from Nakagura et al. (2009) Pain 146:26. This model uses three daily doses of reserpine (1 mg/kg, SC) or 0.5% acetic acid vehicle to reduce pain thresholds (i.e., increase pain perception) in the Von Frey Test (vFT, procedure outlined below).
Von Frey Test (vFT) procedure: Increasing pain thresholds in this test are consistent with a reduction in pain perception. Prior to the start of dosing, rats are tested for their baseline mechanical pain threshold. For von Frey measurements, animals are placed into wire bottom cubicles with opaque Plexiglas walls, allowing access to the underside of their paws. Animals are habituated to this environment for at least 30 minutes before the start of the von Frey filament application. Static allodynia is measured using Semmes-Weinstein von Frey filaments (Stoelting, Wood Dale, IL). Mechanical allodynia is tested by touching the plantar surface of the animals' left and right hind paws with von Frey filaments which deliver a calibrated amount of force. Each von Frey filament is presented perpendicularly to the plantar surface for approximately 6 seconds of constant application in either ascending or descending strength in a modified up-and-down method (Chaplan et al. (1994) J Neurosci. Meth. 53:55). Stimulation is presented at intervals of several seconds, allowing for apparent resolution of any behavioral responses to previous stimuli. A positive response is noted if the paw is sharply withdrawn. Flinching immediately upon removal of the hair is also considered a positive response. Ambulation is considered an ambiguous response, and, in such cases, the stimulus is repeated.
VonFrey measurements: Animals were placed into wire bottom cubicles with opaque Plexiglas walls, allowing access to the underside of their paws. […] Static allodynia was measured using Semmes-Weinstein von Frey filaments (Stoelting, Wood Dale, IL). […] The average hindpaw thresholds were determined 60-min post-injection. […]

T3 sequence (P34998 24-415): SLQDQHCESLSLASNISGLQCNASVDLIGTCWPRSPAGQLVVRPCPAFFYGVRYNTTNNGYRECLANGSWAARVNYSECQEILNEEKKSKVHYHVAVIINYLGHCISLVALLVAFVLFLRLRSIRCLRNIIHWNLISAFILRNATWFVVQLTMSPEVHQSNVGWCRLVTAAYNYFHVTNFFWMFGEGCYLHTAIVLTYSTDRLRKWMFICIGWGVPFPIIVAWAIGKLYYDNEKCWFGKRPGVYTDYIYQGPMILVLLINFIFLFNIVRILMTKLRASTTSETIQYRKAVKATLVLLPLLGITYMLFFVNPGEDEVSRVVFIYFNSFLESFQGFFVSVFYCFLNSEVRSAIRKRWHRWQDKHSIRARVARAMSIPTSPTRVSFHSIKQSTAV
Sequence of DAT (P23977 whole entry, the tested form may be a part): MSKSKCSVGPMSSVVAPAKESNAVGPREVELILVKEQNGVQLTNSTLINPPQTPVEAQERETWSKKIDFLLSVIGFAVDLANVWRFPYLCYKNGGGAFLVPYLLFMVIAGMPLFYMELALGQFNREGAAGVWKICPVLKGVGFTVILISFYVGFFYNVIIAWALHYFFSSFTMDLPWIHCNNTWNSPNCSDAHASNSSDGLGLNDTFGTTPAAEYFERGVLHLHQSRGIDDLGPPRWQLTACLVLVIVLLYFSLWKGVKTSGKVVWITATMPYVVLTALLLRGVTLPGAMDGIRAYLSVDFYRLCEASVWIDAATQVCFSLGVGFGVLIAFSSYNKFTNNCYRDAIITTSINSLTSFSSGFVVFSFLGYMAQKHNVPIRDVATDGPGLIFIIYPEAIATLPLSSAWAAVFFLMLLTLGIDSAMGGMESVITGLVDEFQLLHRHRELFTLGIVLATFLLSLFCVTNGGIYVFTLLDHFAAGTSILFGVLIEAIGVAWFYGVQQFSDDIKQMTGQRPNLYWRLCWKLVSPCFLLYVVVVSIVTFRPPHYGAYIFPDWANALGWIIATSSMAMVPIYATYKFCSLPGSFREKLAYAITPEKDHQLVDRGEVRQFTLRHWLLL
T6 sequence (P35408 whole entry): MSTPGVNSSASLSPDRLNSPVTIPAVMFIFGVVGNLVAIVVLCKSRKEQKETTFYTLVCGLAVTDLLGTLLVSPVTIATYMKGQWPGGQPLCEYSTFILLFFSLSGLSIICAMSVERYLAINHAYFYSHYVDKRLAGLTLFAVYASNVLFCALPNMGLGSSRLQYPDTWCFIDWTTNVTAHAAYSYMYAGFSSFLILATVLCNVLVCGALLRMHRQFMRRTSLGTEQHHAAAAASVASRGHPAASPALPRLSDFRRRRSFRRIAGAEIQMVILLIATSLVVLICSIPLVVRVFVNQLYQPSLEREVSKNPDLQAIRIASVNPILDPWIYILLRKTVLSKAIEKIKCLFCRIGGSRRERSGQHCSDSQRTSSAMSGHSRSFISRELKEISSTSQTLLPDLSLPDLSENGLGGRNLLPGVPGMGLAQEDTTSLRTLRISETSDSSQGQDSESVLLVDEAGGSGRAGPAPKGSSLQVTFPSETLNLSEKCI
Sequence of 168 GPCRs (Homo sapiens, UniProt Q16602) (Q16602 23-461): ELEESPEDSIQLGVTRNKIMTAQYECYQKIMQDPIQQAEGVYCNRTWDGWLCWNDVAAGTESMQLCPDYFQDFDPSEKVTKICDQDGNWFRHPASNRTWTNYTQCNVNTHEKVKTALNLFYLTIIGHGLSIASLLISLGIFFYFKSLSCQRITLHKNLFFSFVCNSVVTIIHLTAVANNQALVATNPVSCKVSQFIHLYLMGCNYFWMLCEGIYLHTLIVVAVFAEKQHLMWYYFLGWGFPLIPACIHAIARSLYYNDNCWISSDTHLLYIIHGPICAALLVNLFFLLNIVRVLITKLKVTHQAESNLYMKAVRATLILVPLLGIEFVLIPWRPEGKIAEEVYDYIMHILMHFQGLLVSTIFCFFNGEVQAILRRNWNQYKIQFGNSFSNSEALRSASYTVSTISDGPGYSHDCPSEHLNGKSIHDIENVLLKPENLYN
T1 sequence (P49238 whole entry): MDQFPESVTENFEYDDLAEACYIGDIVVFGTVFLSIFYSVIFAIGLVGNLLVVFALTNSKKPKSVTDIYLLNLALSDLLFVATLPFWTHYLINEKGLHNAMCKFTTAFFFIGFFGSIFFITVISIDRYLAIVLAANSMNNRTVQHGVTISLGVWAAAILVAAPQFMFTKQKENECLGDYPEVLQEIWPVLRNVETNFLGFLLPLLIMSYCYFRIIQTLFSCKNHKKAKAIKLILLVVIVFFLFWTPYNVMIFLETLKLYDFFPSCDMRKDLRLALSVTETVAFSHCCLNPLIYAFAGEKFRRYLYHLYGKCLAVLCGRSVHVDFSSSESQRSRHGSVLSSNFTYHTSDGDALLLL
T4 sequence (P32249 whole entry): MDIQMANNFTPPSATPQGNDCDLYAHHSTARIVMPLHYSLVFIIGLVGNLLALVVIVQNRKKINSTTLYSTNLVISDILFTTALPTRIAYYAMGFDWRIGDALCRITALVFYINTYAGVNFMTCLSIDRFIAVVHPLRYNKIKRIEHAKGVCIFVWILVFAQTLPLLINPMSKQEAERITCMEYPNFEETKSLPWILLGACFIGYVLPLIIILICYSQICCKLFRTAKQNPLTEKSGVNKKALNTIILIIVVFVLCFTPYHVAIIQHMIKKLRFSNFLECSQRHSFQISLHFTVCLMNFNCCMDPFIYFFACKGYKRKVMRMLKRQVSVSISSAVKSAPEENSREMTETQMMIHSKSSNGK
T5 sequence (Q99788 whole entry): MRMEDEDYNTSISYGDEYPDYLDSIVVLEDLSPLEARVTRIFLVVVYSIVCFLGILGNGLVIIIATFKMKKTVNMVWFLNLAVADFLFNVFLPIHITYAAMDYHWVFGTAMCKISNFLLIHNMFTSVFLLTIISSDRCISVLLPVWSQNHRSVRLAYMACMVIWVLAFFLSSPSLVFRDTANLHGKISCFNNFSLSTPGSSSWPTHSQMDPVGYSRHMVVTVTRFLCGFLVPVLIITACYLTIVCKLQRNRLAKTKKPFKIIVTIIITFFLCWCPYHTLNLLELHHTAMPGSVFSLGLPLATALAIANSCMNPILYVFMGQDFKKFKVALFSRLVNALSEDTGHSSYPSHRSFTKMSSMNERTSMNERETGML
T2 sequence (P32239 whole entry): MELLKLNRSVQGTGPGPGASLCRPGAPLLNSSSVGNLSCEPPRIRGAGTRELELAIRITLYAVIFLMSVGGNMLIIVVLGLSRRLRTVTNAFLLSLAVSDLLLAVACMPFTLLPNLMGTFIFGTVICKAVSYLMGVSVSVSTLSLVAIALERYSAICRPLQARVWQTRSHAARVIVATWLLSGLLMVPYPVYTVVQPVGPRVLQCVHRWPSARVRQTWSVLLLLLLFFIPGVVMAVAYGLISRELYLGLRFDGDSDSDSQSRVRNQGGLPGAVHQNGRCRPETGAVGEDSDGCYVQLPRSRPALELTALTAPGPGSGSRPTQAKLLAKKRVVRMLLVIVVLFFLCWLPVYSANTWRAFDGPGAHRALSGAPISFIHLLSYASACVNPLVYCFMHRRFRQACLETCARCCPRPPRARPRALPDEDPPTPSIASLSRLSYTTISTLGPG

SMILES: CNC(C)C(=O)c1ccc2c(c1)OCO2 (centres unmarked) [Methylone, 3,4-methylenedioxy-N-methylcathinone]
- Total Degradation Products ([1]; 2 Week 25° C. 60% RH): <LOQ
- Total Degradation Products ([1]; 2 Week 40° C. 75% RH): <LOQ
- Total Degradation Products ([1]; 4 Week 25° C. 60% RH): <LOQ
- Total Degradation Products ([1]; 8 Week 25° C. 60% RH): <LOQ
- Total Degradation Products ([1]; t = 0, LOQ ≥ 0.1%): <LOQ
- EC50 [2]: 4.79 µM
- % Activity [3]: −2.2%
- % Activity [4]: 0%
- % Activity [5]: −1%
- % Activity [6]: 1.4%
- % Activity [7]: 0.5%
- % Activity [8]: −0.2%
- % Activity [9]: 2.8%
- Paw withdrawal thresholds [10]: significantly increased paw withdrawal thresholds
